Experimental data published in patent publication US20250368666A1, “INDAZOLE COMPOUNDS” (TYRA BIOSCIENCES, INC., priority 2022, published 2025).
Blank lines part the entries; values can stand above or below the compound they belong to.

Legend:
FGFR1 = target: T1, FGFR1 (Homo sapiens, UniProt P11362); experiment: Kinase binding assay (kinase-tagged T7 phage, affinity beads, qPCR), Kd; settings: read-out: FGFR1 (Kd nM)
T1 construct: made in house; host or cells: E. coli (BL21-derived), T7 phage
Method in brief: (§1)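 Kd obtained by Levenberg–Marquardt Hill-equation fit (slope −1) to qPCR-measured kinase retained on ligand-coated streptavidin beads.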

FGFR3 = target: T2, FGFR3 (Homo sapiens, UniProt P22607); experiment: as above; settings: read-out: FGFR3 (Kd nM)
T2 construct: made in house; host or cells: E. coli (BL21-derived), T7 phage
T2 sequence (P22607 23-806): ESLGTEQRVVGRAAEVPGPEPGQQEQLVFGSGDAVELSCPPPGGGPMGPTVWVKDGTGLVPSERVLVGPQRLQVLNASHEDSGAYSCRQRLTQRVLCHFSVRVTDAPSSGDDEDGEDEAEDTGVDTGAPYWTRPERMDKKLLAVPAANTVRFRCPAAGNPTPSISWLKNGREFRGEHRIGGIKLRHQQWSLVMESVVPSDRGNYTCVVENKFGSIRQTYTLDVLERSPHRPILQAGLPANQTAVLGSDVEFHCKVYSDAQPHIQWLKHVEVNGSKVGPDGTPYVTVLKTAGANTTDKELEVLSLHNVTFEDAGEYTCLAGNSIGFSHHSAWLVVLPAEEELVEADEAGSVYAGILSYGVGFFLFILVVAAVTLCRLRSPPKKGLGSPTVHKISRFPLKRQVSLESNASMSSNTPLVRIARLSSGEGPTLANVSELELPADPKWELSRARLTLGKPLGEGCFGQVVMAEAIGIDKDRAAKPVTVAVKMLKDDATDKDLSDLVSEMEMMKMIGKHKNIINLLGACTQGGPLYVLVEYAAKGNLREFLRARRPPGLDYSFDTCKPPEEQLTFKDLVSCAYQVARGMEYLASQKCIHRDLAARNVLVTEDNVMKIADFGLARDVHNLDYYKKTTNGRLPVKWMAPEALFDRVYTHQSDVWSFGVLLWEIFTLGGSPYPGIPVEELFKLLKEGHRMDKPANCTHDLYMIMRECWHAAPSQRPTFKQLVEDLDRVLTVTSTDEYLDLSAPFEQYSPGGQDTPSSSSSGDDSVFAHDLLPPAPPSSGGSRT
Method in brief: as §1

FGFR2 = target: T3, FGFR2 (Homo sapiens, UniProt P21802); experiment: as above; settings: read-out: FGFR2 (Kd nM)
T3 construct: made in house; host or cells: E. coli (BL21-derived), T7 phage
T3 sequence (P21802 22-821): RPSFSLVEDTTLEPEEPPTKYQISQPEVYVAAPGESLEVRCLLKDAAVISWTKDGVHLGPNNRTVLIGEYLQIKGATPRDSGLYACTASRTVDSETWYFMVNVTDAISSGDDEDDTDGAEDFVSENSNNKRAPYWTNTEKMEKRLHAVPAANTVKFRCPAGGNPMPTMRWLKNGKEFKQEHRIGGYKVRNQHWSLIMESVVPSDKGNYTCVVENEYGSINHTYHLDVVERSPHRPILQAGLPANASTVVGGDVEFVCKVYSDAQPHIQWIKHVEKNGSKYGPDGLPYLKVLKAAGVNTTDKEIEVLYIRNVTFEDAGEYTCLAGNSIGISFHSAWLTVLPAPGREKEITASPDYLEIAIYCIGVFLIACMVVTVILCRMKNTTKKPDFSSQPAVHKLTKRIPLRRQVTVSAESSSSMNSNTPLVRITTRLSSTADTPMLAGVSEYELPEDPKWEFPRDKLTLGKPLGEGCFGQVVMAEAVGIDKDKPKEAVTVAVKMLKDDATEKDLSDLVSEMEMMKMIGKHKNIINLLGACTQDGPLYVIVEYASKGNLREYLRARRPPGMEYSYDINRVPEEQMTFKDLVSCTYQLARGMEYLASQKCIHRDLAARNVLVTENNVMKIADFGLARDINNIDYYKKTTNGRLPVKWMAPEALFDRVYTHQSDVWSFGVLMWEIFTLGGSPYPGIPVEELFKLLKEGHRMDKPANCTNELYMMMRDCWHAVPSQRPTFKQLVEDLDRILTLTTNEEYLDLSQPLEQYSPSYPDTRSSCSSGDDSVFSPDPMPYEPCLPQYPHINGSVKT
Method in brief: as §1

FGFR4 = target: T4, FGFR4 (Homo sapiens, UniProt P22455); experiment: as above; settings: read-out: FGFR4 (Kd nM)
T4 construct: made in house; host or cells: E. coli (BL21-derived), T7 phage
T4 sequence (P22455 22-802): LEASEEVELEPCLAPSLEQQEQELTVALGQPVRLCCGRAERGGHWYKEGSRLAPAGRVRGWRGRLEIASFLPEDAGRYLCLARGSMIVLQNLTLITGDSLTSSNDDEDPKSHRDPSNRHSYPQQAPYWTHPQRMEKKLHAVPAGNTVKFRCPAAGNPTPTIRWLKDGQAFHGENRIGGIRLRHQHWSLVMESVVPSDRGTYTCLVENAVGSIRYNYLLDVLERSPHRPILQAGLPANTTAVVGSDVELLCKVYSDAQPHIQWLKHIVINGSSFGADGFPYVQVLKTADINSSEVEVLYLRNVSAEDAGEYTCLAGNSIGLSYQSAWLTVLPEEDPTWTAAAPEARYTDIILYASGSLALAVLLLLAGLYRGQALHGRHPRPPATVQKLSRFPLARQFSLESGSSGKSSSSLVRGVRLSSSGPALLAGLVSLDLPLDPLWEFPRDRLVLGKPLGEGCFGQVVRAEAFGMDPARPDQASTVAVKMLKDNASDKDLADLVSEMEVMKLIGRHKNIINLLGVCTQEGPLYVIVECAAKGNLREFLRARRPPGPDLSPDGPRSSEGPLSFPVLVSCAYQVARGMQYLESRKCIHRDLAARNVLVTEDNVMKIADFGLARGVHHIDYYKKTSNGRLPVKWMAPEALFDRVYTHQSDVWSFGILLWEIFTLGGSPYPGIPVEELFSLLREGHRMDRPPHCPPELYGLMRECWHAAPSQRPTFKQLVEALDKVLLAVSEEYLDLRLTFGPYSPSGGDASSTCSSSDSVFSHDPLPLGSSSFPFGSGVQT
Method in brief: as §1

[1] = test system: RT112/84 cell line (FGFR3-fusion); experiment: Cancer cell line cell viability assay (Cell Titer-Glo), 72 hr; format: cell-based; settings: Homo sapiens, RT112/84, RT112/84 cell line (FGFR3-fusion)
Method in brief: (§2)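 RPMI1640/10% FBS for RT112/84 and MDA-MB-453; IMDM/20% FBS for KG-1; IMDM/10% FBS for HuH7. Cells plated overnight, dosed from 3 μM in 4-fold, 9-point series, incubated at 37° C, then lysed with Cell Titer-Glo 2.0; IC50 by sigmoidal fit.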

[2] = test system: KG-1 cell line (FGFR 1-fusion); experiment: as above; format: cell-based; settings: Homo sapiens, KG-1, KG-1 cell line (FGFR1-fusion)
Method in brief: as §2

[3] = test system: KATO-III cell line (FGFR2 amplification); experiment: as above; format: cell-based; settings: Homo sapiens, KATO III
Method in brief: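 Cells seeded at 5,000-20,000/well, incubated overnight, then treated with a 9-dose, 4-fold dilution series from 3 μM in triplicate at 37° C, 5% CO2. Viability read by Cell Titer-Glo 2.0 luminescence as percent of DMSO control; IC50 from 4-parameter variable-slope sigmoidal fit.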

[4] = test system: HuH7 cell line (FGF19 amplification); experiment: Cancer cell line cell viability assay (Cell Titer-Glo), 120 hr; format: cell-based; settings: Homo sapiens, Huh-7
Method in brief: as §2

T1 sequence (P11362 22-822): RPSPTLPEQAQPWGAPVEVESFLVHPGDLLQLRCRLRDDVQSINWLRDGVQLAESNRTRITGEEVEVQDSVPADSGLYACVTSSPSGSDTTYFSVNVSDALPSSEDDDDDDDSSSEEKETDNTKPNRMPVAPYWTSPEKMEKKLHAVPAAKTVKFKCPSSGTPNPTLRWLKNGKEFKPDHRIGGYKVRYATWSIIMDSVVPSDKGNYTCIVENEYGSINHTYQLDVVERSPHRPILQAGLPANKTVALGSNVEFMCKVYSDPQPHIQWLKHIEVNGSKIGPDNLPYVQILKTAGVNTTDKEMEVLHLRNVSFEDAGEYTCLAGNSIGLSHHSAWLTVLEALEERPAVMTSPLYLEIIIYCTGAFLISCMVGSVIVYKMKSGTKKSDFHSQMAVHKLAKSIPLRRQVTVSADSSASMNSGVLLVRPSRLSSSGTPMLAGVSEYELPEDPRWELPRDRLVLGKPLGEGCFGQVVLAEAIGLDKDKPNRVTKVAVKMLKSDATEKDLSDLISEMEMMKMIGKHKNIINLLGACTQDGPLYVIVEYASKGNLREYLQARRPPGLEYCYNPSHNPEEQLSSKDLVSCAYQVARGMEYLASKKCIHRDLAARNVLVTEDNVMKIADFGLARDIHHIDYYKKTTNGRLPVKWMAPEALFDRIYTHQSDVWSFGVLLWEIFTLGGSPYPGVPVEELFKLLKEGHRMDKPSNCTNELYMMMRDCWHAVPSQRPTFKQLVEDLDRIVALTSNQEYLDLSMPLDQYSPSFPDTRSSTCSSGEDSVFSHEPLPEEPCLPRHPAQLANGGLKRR

Compound: COc1cc2[nH]nc(-c3cnc(N4CC(C)(N(C)CC(C)C)C4)c(C#N)c3)c2cc1O[C@H](C)c1c(Cl)cncc1Cl [Example 343, (R)-5-(5-(1-(3,5-dichloropyridin-4-yl)ethoxy)-6-methoxy-1H-indazol-3-yl)-2-(3-(isobutyl(meth-yl)amino)-3-methylazetidin-1-yl)nicotinonitrile]
Kd (FGFR1): 50 to 300 nM | Kd (FGFR3): 1 to 50 nM | Kd (FGFR2): 50 to 300 nM | Kd (FGFR4): 1 to 50 nM | IC50 [1]: 50 to 200 nM | IC50 [2]: > 1000 nM | IC50 [3]: 200 to 1000 nM | IC50 [4]: 200 to 1000 nM

Compound: COc1cc2[nH]nc(-c3cnc(N4CC(N)(C5CCC5)C4)c(C#N)c3)c2cc1O[C@H](C)c1c(Cl)cncc1Cl [Example 356, (R)-2-(3-amino-3-cyclobutylazetidin-1-yl)-5-(5-(1-(3,5-dichloropyridin-4-yl)ethoxy)-6-methoxy-1H-indazol-3-yl)nicotinonitrile]
Kd (FGFR1): 1 to 50 nM | Kd (FGFR3): 1 to 50 nM | Kd (FGFR2): 1 to 50 nM | Kd (FGFR4): 1 to 50 nM | IC50 [1]: 0.1 to 50 nM | IC50 [2]: 50 to 200 nM | IC50 [3]: 200 to 1000 nM | IC50 [4]: 0.1 to 50 nM

Compound: COc1cc2[nH]nc(-c3cnc(N4CC(N)(CC(C)C)C4)c(C#N)c3)c2cc1O[C@H](C)c1c(Cl)cncc1Cl [Example 357, (R)-2-(3-amino-3-isobutylazetidin-1-yl)-5-(5-(1-(3,5-dichloropyridin-4-yl)ethoxy)-6-methoxy-1H-indazol-3-yl)nicotinonitrile]
Kd (FGFR1): 1 to 50 nM | Kd (FGFR3): 1 to 50 nM | Kd (FGFR2): 1 to 50 nM | Kd (FGFR4): 1 to 50 nM | IC50 [1]: 50 to 200 nM | IC50 [2]: 50 to 200 nM | IC50 [3]: 50 to 200 nM | IC50 [4]: 0.1 to 50 nM

Compound: COc1cc2[nH]nc(-c3cnc(N4CC(N)(CC5CC5)C4)c(C#N)c3)c2cc1O[C@H](C)c1c(Cl)cncc1Cl [Example 359]
Kd (FGFR1): 1 to 50 nM | Kd (FGFR3): 1 to 50 nM | Kd (FGFR2): 1 to 50 nM | Kd (FGFR4): 1 to 50 nM | IC50 [1]: 50 to 200 nM | IC50 [2]: 50 to 200 nM | IC50 [3]: 50 to 200 nM | IC50 [4]: 0.1 to 50 nM

Compound: CCCC1(N)CN(c2ncc(-c3n[nH]c4cc(OC)c(O[C@H](C)c5c(Cl)cncc5Cl)cc34)cc2C#N)C1 [Example 360, (R)-2-(3-amino-3-propylazetidin-1-yl)-5-(5-(1-(3,5-dichloropyridin-4-yl)ethoxy)-6-methoxy-1H-indazol-3-yl)nicotinonitrile]
Kd (FGFR1): 1 to 50 nM | Kd (FGFR3): 1 to 50 nM | Kd (FGFR2): 1 to 50 nM | Kd (FGFR4): 1 to 50 nM | IC50 [1]: 0.1 to 50 nM | IC50 [2]: 50 to 200 nM | IC50 [3]: 50 to 200 nM | IC50 [4]: 0.1 to 50 nM

Compound: COc1cc2[nH]nc(-c3cnc(N4CC(N)(CC(C)(C)O)C4)c(C#N)c3)c2cc1O[C@H](C)c1c(Cl)cncc1Cl [Example 361, (R)-2-(3-amino-3-(2-hydroxy-2-methylpropyl)azetidin-1-yl)-5-(5-(1-(3,5-dichloropyridin-4-yl)ethoxy)-6-methoxy-1H-indazol-3-yl)nicotinonitrile]
Kd (FGFR1): 1 to 50 nM | Kd (FGFR3): 1 to 50 nM | Kd (FGFR2): 1 to 50 nM | Kd (FGFR4): 1 to 50 nM | IC50 [1]: 50 to 200 nM | IC50 [2]: 200 to 1000 nM | IC50 [3]: 50 to 200 nM | IC50 [4]: 50 to 200 nM

Compound: C=CCC1(N)CN(c2ncc(-c3n[nH]c4cc(OC)c(O[C@H](C)c5c(Cl)cncc5Cl)cc34)cc2C#N)C1 [Example 362, (R)-2-(3-ally1-3-aminoazetidin-1-yl)-5-(5-(1-(3,5-dichloropyridin-4-yl)ethoxy)-6-methoxy-1H-indazol-3-yl)nicotinonitrile]
Kd (FGFR1): 1 to 50 nM | Kd (FGFR3): 1 to 50 nM | Kd (FGFR2): 1 to 50 nM | Kd (FGFR4): 1 to 50 nM | IC50 [1]: 0.1 to 50 nM | IC50 [2]: 50 to 200 nM | IC50 [3]: 50 to 200 nM | IC50 [4]: 0.1 to 50 nM

Compound: COc1cc2[nH]nc(-c3cnc(N4CC(N)(CC=C(C)C)C4)c(C#N)c3)c2cc1O[C@H](C)c1c(Cl)cncc1Cl [Example 363, (R)-2-(3-amino-3-(3-methylbut-2-en-1-yl)azetidin-1-yl)-5-(5-(1-(3,5-dichloropyridin-4-yl)ethoxy)-6-methoxy-1H-indazol-3-yl)nicotinonitrile]
Kd (FGFR1): 1 to 50 nM | Kd (FGFR3): 1 to 50 nM | Kd (FGFR2): 1 to 50 nM | Kd (FGFR4): 1 to 50 nM | IC50 [1]: 0.1 to 50 nM | IC50 [2]: 200 to 1000 nM | IC50 [3]: 50 to 200 nM | IC50 [4]: 0.1 to 50 nM

Compound: COc1cc2[nH]nc(-c3cnc(N4CC(N)(CCS(C)(=O)=O)C4)c(C#N)c3)c2cc1O[C@H](C)c1c(Cl)cncc1Cl [Example 364, (R)-2-(3-amino-3-(2-(methylsulfonyl)ethyl)azetidin-1-yl)-5-(5-(1-(3,5-dichloropyridin-4-yl)ethoxy)-6-methoxy-1H-indazol-3-yl)nicotinonitrile]
Kd (FGFR1): 1 to 50 nM | Kd (FGFR3): 1 to 50 nM | Kd (FGFR2): 1 to 50 nM | Kd (FGFR4): 1 to 50 nM | IC50 [1]: 50 to 200 nM | IC50 [2]: > 1000 nM | IC50 [3]: 50 to 200 nM | IC50 [4]: 0.1 to 50 nM

Other lines, results leading:

Kd (FGFR1): 1 to 50 nM | Kd (FGFR3): 1 to 50 nM | Kd (FGFR2): 1 to 50 nM | Kd (FGFR4): 1 to 50 nM | IC50 [1]: 0.1 to 50 nM | IC50 [2]: 200 to 1000 nM | IC50 [3]: 50 to 200 nM | IC50 [4]: 0.1 to 50 nM
Compound: COc1cc2[nH]nc(-c3cnc(N4CC(C)(N(C)CC5CC5)C4)c(C#N)c3)c2cc1O[C@H](C)c1c(Cl)cncc1Cl [Example 344, (R)-2-(3-((cyclopropyl-methyl) (methyl)amino)-3-methylazetidin-1-yl)-5-(5-(1-(3,5-dichloropyridin-4-yl)ethoxy)-6-methoxy-1H-indazol-3-yl)nicotinonitrile]

Kd (FGFR1): 1 to 50 nM | Kd (FGFR3): 1 to 50 nM | Kd (FGFR2): 1 to 50 nM | Kd (FGFR4): 1 to 50 nM | IC50 [1]: 0.1 to 50 nM | IC50 [2]: 50 to 200 nM | IC50 [3]: 0.1 to 50 nM | IC50 [4]: 0.1 to 50 nM
Compound: COc1cc2[nH]nc(-c3cnc(N4CC(N)(CC#N)C4)c(C#N)c3)c2cc1O[C@H](C)c1c(Cl)cncc1Cl [Example 345, 2-[3-amino-3-(cyanomethyl)azeti-din-1-yl]-5-[5-[(1R)-1-(3,5-dichloro-4-pyridyl)ethoxy]-6-methoxy-1H-indazol-3-yl]pyridine-3-carbonitrile]

Kd (FGFR1): 1 to 50 nM | Kd (FGFR3): 1 to 50 nM | Kd (FGFR2): 1 to 50 nM | Kd (FGFR4): 1 to 50 nM | IC50 [1]: 0.1 to 50 nM | IC50 [2]: 50 to 200 nM | IC50 [3]: 0.1 to 50 nM | IC50 [4]: 0.1 to 50 nM
Compound: COc1cc2[nH]nc(-c3cnc(N4CC(CC#N)(NCC5CC5)C4)c(C#N)c3)c2cc1O[C@H](C)c1c(Cl)cncc1Cl [Example 346, (R)-2-(3-(cyanomethyl)-3-((cyclo-propylmethyl)-amino)azetidin-1-yl)-5-(5-(1-(3,5-dichloropyridin-4-yl)ethoxy)-6-methoxy-1H-indazol-3-yl)nicotinonitrile]

Kd (FGFR1): 1 to 50 nM | Kd (FGFR3): 1 to 50 nM | Kd (FGFR2): 1 to 50 nM | Kd (FGFR4): 1 to 50 nM | IC50 [1]: 0.1 to 50 nM | IC50 [2]: 0.1 to 50 nM | IC50 [3]: 0.1 to 50 nM | IC50 [4]: 0.1 to 50 nM
Compound: CCC1(NC)CN(c2ncc(-c3n[nH]c4cc(OC)c(O[C@H](C)c5c(Cl)cncc5Cl)cc34)cc2C#N)C1 [Example 351, (R)-5-(5-(1-(3,5-Dichloropyridin-4-yl)ethoxy)-6-methoxy-1H-indazol-3-yl)-2-(3-ethyl-3-(methyl-amino)azeti-din-1-yl)nicotinonitrile diHCl]

Kd (FGFR1): 1 to 50 nM | Kd (FGFR3): 1 to 50 nM | Kd (FGFR2): 1 to 50 nM | Kd (FGFR4): 1 to 50 nM | IC50 [1]: 0.1 to 50 nM | IC50 [2]: 0.1 to 50 nM | IC50 [3]: 0.1 to 50 nM | IC50 [4]: 0.1 to 50 nM
Compound: COc1cc2[nH]nc(-c3cnc(N4CC(CC#N)(N(C)C)C4)c(C#N)c3)c2cc1O[C@H](C)c1c(Cl)cncc1Cl [Example 352, (R)-2-(3-(cyanomethyl)-3-(dimethylamino)-azetidin-1-yl)-5-(5-(1-(3,5-dichloropyridin-4-yl)ethoxy)-6-methoxy-1H-indazol-3-yl)nicotinonitrile]

Kd (FGFR1): 1 to 50 nM | Kd (FGFR3): 1 to 50 nM | Kd (FGFR2): 1 to 50 nM | Kd (FGFR4): 1 to 50 nM | IC50 [1]: 0.1 to 50 nM | IC50 [2]: 50 to 200 nM | IC50 [3]: 50 to 200 nM | IC50 [4]: 0.1 to 50 nM
Compound: COc1cc2[nH]nc(-c3cnc(N4CC(N)(C(C)C)C4)c(C#N)c3)c2cc1O[C@H](C)c1c(Cl)cncc1Cl [Example 353, (R)-2-(3-amino-3-isopropylazetidin-1-yl)-5-(5-(1-(3,5-dichloropyridin-4-yl)ethoxy)-6-methoxy-1H-indazol-3-yl)nicotinonitrile]

Kd (FGFR1): 1 to 50 nM | Kd (FGFR3): 1 to 50 nM | Kd (FGFR2): 1 to 50 nM | Kd (FGFR4): 1 to 50 nM | IC50 [1]: 0.1 to 50 nM | IC50 [2]: 50 to 200 nM | IC50 [3]: 0.1 to 50 nM | IC50 [4]: 0.1 to 50 nM
Compound: COc1cc2[nH]nc(-c3cnc(N4CC(CC#N)(N5CCCC5)C4)c(C#N)c3)c2cc1O[C@H](C)c1c(Cl)cncc1Cl [Example 354, (R)-2-(3-(cyanomethyl)-3-(pyrrolidin-1-yl)azetidin-1-yl)-5-(5-(1-(3,5-dichloropyridin-4-yl)ethoxy)-6-methoxy-1H-indazol-3-yl)nicotinonitrile]
